Laboratory results from patent US10329243B2, “Biphenyl derivative and uses thereof” (XI'AN LIBANG PHARMACEUTICAL CO., LTD, priority 2015, dated 2019).

Tests used:
Assay type in all cases: in vivo, SD rats
[1] = test system: rats with cerebral ischemic reperfusion injury; experiment: Relative infarct volume (TTC, imageJ), cerebral ischemic reperfusion MCAO model
Experimental: (§1) Rats were intraperitoneally injected with 10% chloral hydrate 350 mg/kg after anesthesia and opened up at the center of the neck in accordance with the Zea Longa modified method. The right common carotid artery was separated, and the right external carotid artery branches was ligated. A small opening was made at the distal end of the external carotid artery, and a previously prepared thread was inserted through the common carotid artery and the external carotid artery bifurcation into the internal carotid artery, till the anterior end of the middle cerebral artery, with an immersed depth of 18 to 19 mm. The thread was then secured, and the wound was sutured layer by layer. After the operation, the rats were placed in a clean incubator to wake up. […] The sham operation group, the ischemic reperfusion group, and the Example groups were prepared strictly according to the requirements of the cerebral ischemic reperfusion model, while in the sham operation group the thread was put only into the external carotid artery. The animals were allowed to eat and drink freely after waking up. After 2 h, the thread was pulled out to achieve reperfusion. The sham operation group, the ischemic reperfusion group, and the Example groups were administered intravenously the aqueous solution of the biphenyl derivatives in PEG400 at 40 mg/kg (40 mg/kg means that 40 mg of the test compound per kg of the body weight of rats) 30 min before reperfusion and 12 h after reperfusion, respectively. The sham operation group and the ischemic reperfusion group were injected with the same amount of blank PEG400 aqueous solution at the same time point.
(§2) 24 hours after reperfusion, 8 rats in each group were sacrificed by decapitation, the brain was removed, rinsed with PBS (pH 7.4) at −20° i for 20 min, evenly sliced (with a thickness of 2 mm), stained in a 2% TTC solution at 37°% in the dark for 30 min, fixed in 10% formalin for 24 h, and photographs were taken to analyze the infarct volume. A mixture of femoral arterial and venous blood was drawn from another 8 rats in each group under anesthesia, placed in a low temperature centrifuge at 4° C., centrifuged at 3500 r/min for 20 min, and the supernatant was stored in a refrigerator at −20° C. ready for SOD and MDA detection. After the blood was drawn, a perfusion needle was insert through the apex to the ascending aorta, and saline at 4° C. was rapid infused until the effluent became clear, followed by 4% paraformaldehyde phosphate buffer perfusion for fixation; the brain was removed by craniotomy, and brain tissues 2 mm in front of and behind the optic chiasma were taken and fixed, dehydrated, rendered transparent, impregnated in wax, and embedded. Brain continuous coronary tissue pathological sections were consecutively cut for later use. The remaining 8 rats in each group were sacrificed, brains were removed, the ischemic brain hemispheres were immediately taken on an ice tray, and 10% brain tissue homogenate was prepared for the detection of IL-1β and TNF-α.
The infarct area in each brain section was analyzed and quantified by the imageJ image software, and the ratio of cerebral infarction volume in the overall brain volume was calculated.

[2] = test system: SOD; experiment: SOD determination, cerebral ischemic reperfusion MCAO model
Experimental: as §1, §2
(§3) SOD and MDA were determined strictly in accordance with instructions of the kit.

[3] = test system: IL-1β; experiment: Determination of IL-1β in brain tissue homogenate, cerebral ischemic reperfusion MCAO model
Experimental: as §1, §2
(§4) Brain tissue homogenate was hypothermally centrifuged at 3000 rpm for 15 min, the supernatant was taken, and IL-1β and TNF-α were determined in strict accordance with instructions of the kits.

[4] = test system: TNF-α; experiment: Determination of TNF-α in brain tissue homogenate, cerebral ischemic reperfusion MCAO model
Experimental: as §1, §2, §4

[5] = test system: SOD; experiment: SOD determination, permanent cerebral ischemia model
Experimental: as §1, with “the permanent cerebral ischemia model” for “the ischemic reperfusion”, “up.” for “up. After 2 h, the thread was pulled out to achieve reperfusion.”, “before insertion of thread” for “before reperfusion”, “after embolism,” for “after reperfusion,”
as §2, with “the embolism,” for “reperfusion,”, “−20°i” for “−20° i”
as §3

[6] = test system: IL-1β; experiment: Determination of IL-1β in brain tissue homogenate, permanent cerebral ischemia model
Experimental: as §1, with “the permanent cerebral ischemia model” for “the ischemic reperfusion”, “up.” for “up. After 2 h, the thread was pulled out to achieve reperfusion.”, “before insertion of thread” for “before reperfusion”, “after embolism,” for “after reperfusion,”
as §2, with “the embolism,” for “reperfusion,”, “−20°i” for “−20° i”
as §4

[7] = test system: TNF-α; experiment: Determination of TNF-α in brain tissue homogenate, permanent cerebral ischemia model
Experimental: as §1, with “the permanent cerebral ischemia model” for “the ischemic reperfusion”, “up.” for “up. After 2 h, the thread was pulled out to achieve reperfusion.”, “before insertion of thread” for “before reperfusion”, “after embolism,” for “after reperfusion,”
as §2, with “the embolism,” for “reperfusion,”, “−20°i” for “−20° i”
as §4

[8] = ischemic reperfusion rat model, edaravone 3 mg/kg
[9] = permanent cerebral ischemia model rats, edaravone 3 mg/kg
[10] = ischemic reperfusion MCAO rats, 40 mg/kg intravenously, 10% brain tissue homogenate, 24 h after reperfusion, 40 mg/kg
[11] = permanent cerebral ischemia model rats, 40 mg/kg intravenously, 10% brain tissue homogenate, 24 h after the embolism, 40 mg/kg
[12] = ischemic reperfusion MCAO rats, 40 mg/kg intravenously 30 min before and 12 h after reperfusion, 24 h after reperfusion
[13] = ischemic reperfusion MCAO rats, 40 mg/kg intravenously 30 min before and 12 h after reperfusion, serum, 24 h after reperfusion
[14] = ischemic reperfusion MCAO rats, 40 mg/kg intravenously, 10% brain tissue homogenate, 24 h after reperfusion
[15] = permanent cerebral ischemia model rats, 40 mg/kg intravenously, serum, 24 h after the embolism
[16] = permanent cerebral ischemia model rats, 40 mg/kg intravenously, 10% brain tissue homogenate, 24 h after the embolism

Compound	Relative Brain infarction volume (%) [1, 12]	SOD ACTIVITY (U/mL) [2, 13]	IL-1β content [3, 14]	TNF-α content [4, 14]	SOD ACTIVITY (U/mL) [5, 15]	IL-1β content [6, 16]	TNF-α content [7, 16]	further results
3,3′,5,5′-tetraisopropylbiphenyl-4,4′-bis(oxymethylene phosphate) [Example 3 group]								Relative Brain infarction volume (%) ([1]; rat, in vivo, iv, 40 mg/kg): 25.41 ± 3.59 %; SOD ACTIVITY (U/mL) ([2]; rat, in vivo, iv, 40 mg/kg): 93.15 ± 3.05 U/mL; IL-1β content ([3]; rat, in vivo, iv, 40 mg/kg): 0.66 ± 0.05 ng/mL; TNF-α content ([4]; rat, in vivo, iv, 40 mg/kg): 4.26 ± 0.54 ng/mL; SOD ACTIVITY (U/mL) ([5]; rat, in vivo, iv, 40 mg/kg): 93.61 ± 2.13 U/mL; IL-1β content ([6]; rat, in vivo, iv, 40 mg/kg): 0.67 ± 0.08 ng/mL; TNF-α content ([7]; rat, in vivo, iv, 40 mg/kg): 4.45 ± 0.91 ng/mL
CC1=NN(c2ccccc2)C(=O)C1 [Edaravone injection, edaravone, reference compound]								Relative Brain infarction volume (%) [1, 8]: 29.31 ± 3.95 %; SOD ACTIVITY (U/mL) [2, 8]: 88.16 ± 3.99 U/mL; IL-1β content [3, 8]: 0.75 ± 0.05 ng/mL; TNF-α content [4, 8]: 5.14 ± 0.44 ng/mL; SOD ACTIVITY (U/mL) [5, 9]: 90.62 ± 3.81 U/mL; IL-1β content [6, 9]: 0.76 ± 0.04 ng/mL; TNF-α content [7, 9]: 5.53 ± 0.54 ng/mL
CC(=O)Oc1c(C(C)C)cc(-c2cc(C(C)C)c(O)c(C(C)C)c2)cc1C(C)C [Example 1 group, 4′-hydroxy-3,3′,5,5′-tetraisopropylbiphenyl-4-acetate]								Relative Brain infarction volume (%) ([1]; ischemic reperfusion MCAO rats, 40 mg/kg intravenously 30 min before and 12 h after reperfusion, 24 h after reperfusion, 40 mg/kg): 18.71 ± 4.69 %; SOD ACTIVITY (U/mL) ([2]; ischemic reperfusion MCAO rats, 40 mg/kg intravenously 30 min before and 12 h after reperfusion, serum, 24 h after reperfusion, 40 mg/kg): 96.78 ± 2.94 U/mL; IL-1β content [3, 10]: 0.63 ± 0.12 ng/mL; TNF-α content [4, 10]: 4.11 ± 0.72 ng/mL; SOD ACTIVITY (U/mL) ([5]; permanent cerebral ischemia model rats, 40 mg/kg intravenously, serum, 24 h after the embolism, 40 mg/kg): 97.36 ± 4.51 U/mL; IL-1β content [6, 11]: 0.64 ± 0.09 ng/mL; TNF-α content [7, 11]: 4.25 ± 0.66 ng/mL
CC(=O)Oc1c(C(C)C)cc(-c2cc(C(C)C)c(OC(C)=O)c(C(C)C)c2)cc1C(C)C [Example 2 group, 3,3′,5,5′-tetraisopropylbiphenyl-4′-diacetate]	23.22 ± 3.12 %	94.46 ± 2.19 U/mL	0.79 ± 0.11 ng/mL	5.03 ± 0.59 ng/mL	93.28 ± 3.49 U/mL	0.78 ± 0.12 ng/mL	5.15 ± 0.88 ng/mL	
CC(C)c1cc(-c2cc(C(C)C)c(OC(=O)CCC(=O)O)c(C(C)C)c2)cc(C(C)C)c1O [Example 5 group, [4-(4′-hydroxy-3,3′,5,5′-tetraisopropylbiphenyl)oxy]-4-carbonyl butyric acid]	23.55 ± 5.67 %	95.01 ± 3.22 U/mL	0.74 ± 0.09 ng/mL	5.01 ± 0.59 ng/mL	95.31 ± 4.11 U/mL	0.72 ± 0.11 ng/mL	5.23 ± 0.48 ng/mL	
CCCc1cc(-c2cc(CCC)c(O)c(C(C)C)c2)cc(C(C)C)c1O [Example 6 group, 4,4′-dihydroxy-3,3′-diisopropyl-5,5′-dipropylbiphenyl]	19.35 ± 4.02 %	96.89 ± 3.49 U/mL	0.64 ± 0.03 ng/mL	4.16 ± 0.44 ng/mL	97.21 ± 4.36 U/mL	0.55 ± 0.05 ng/mL	4.99 ± 0.53 ng/mL	
CCCc1cc(-c2cc(CCC)c(O)c(CCC)c2)cc(CCC)c1O [Example 7 group, 4,4′-dihydroxy-3,3′,5,5′-tetrapropylbiphenyl]	19.29 ± 3.54 %	94.51 ± 2.19 U/mL	0.63 ± 0.08 ng/mL	4.32 ± 0.61 ng/mL	98.28 ± 3.18 U/mL	0.57 ± 0.08 ng/mL	4.26 ± 0.40 ng/mL	
CC(C)c1cc(-c2cc(C(C)C)c(C(=O)O)c(C(C)C)c2)cc(C(C)C)c1O [Example 8 group, 4′-hydroxy-3,3′,5,5′-tetraisopropylbiphenyl-4-carboxylic acid]	25.83 ± 2.38 %	96.09 ± 3.33 U/mL	0.64 ± 0.14 ng/mL	4.35 ± 0.46 ng/mL	96.90 ± 3.69 U/mL	0.65 ± 0.08 ng/mL	4.39 ± 0.73 ng/mL	
CC(C)c1cc(-c2cc(C(C)C)c(Cl)c(C(C)C)c2)cc(C(C)C)c1O [Example 9 group, 4-chloro-4′-hydroxy-3,3′,5,5′-tetraisopropylbiphenyl]								Relative Brain infarction volume (%) ([1]; rat, in vivo, iv, 40 mg/kg): 24.74 ± 6.13 %; SOD ACTIVITY (U/mL) ([2]; rat, in vivo, iv, 40 mg/kg): 92.26 ± 2.96 U/mL; IL-1β content ([3]; rat, in vivo, iv, 40 mg/kg): 0.63 ± 0.07 ng/mL; TNF-α content ([4]; rat, in vivo, iv, 40 mg/kg): 5.02 ± 0.39 ng/mL; SOD ACTIVITY (U/mL) ([5]; rat, in vivo, iv, 40 mg/kg): 93.62 ± 2.73 U/mL; IL-1β content ([6]; rat, in vivo, iv, 40 mg/kg): 0.62 ± 0.12 ng/mL; TNF-α content ([7]; rat, in vivo, iv, 40 mg/kg): 5.17 ± 0.40 ng/mL
CC(C)c1cc(-c2cc(C(C)C)c(OC=O)c(C(C)C)c2)cc(C(C)C)c1O [Example 10 group]	23.91 ± 5.44 %	95.16 ± 3.88 U/mL	0.67 ± 0.05 ng/mL	4.68 ± 0.61 ng/mL	94.08 ± 2.83 U/mL	0.66 ± 0.06 ng/mL	5.05 ± 0.54 ng/mL	
CC(C)c1cc(-c2cc(C(C)C)c(OC(=O)C(N)C(C)C)c(C(C)C)c2)cc(C(C)C)c1O (centres unmarked) [Example 11 group, 4′-hydroxy-3,3′,5,5′-tetraisopropylbiphenyl-2-amino-3-methylbutyrate]	23.59 ± 4.11 %	96.71 ± 4.29 U/mL	0.71 ± 0.07 ng/mL	5.31 ± 0.51 ng/mL	95.76 ± 3.93 U/mL	0.76 ± 0.04 ng/mL	5.16 ± 0.43 ng/mL	
